What was measured:
Test in all cases: Proliferation Assay (Cell Viability Assay)
Assay type in all cases: cell-based
[1] = tested on: BT-20 (expressing wild type KRas); conditions: Homo sapiens; BT-20, Breast (TNBC), KRas WT
Protocol: (§1) Cell lines: these Human tumor-derived cell lines were purchased from American Type Culture Collection. Human tumor-derived pancreatic cancer cell line MiaPaca-2 (expressing KRAS G12C mutant) and Panc-1 (expressing KRas G12D mutant), and Human non-small cell lung cancer (NSCLC) cell line A549 (expressing KRas G12S mutant), and Human melanoma cell line A375 (wild type Kras) were grown in complete DMEM-High Glucose medium. Human tumor-derived pancreatic cancer cell lines SU86.86 (expressing KRas G12D mutant), BxPC3 (expressing wild type K-Ras), and Human non-small cell lung cancer (NSCLC) cell lines NCI-H441 (expressing KRas G12S mutant), NCI-H1975 (expressing wild type KRas), NCI-H358 (expressing KRas G12C mutant), NCI-H1299 (expressing NRas Q61H mutant), and Human colon cancer cell line SW-620 (expressing KRas G12V mutant), Human triple negative breast cancer cell line HCC-1806 (expressing wild type KRas), and Human tumor-derived multiple myeloma cell line MM.1R (expressing wild type KRAS), were grown in RPMI 1640 medium. Human tumor-derived breast cancer cell line BT-549 (expressing wild type KRAS) was grown in RPMI 1640 medium in the presence of 11.8U insulin. Human tumor-derived pancreatic cancer cell line HPAF-II (expressing KRas G12D mutant), Human triple negative breast cancer cell line BT-20 (expressing wild type KRas), and Human colon cancer cell line LS123 (expressing KRas G12S mutant), were grown in EMEM medium. Human tumor-derived pancreatic cancer cell line CF-PAC1 (expressing KRas G12V mutant) was frown in IMDM medium, and Human colon cancer cell line HT29 (expressing wild type KRas) was grown in McCoy's 5A medium. The colon cancer cell line GP2d (expressing KRas G12D mutant) was purchased from MilliporeSigma and grown in DMEM-High Glucose medium. All cell lines were supplemented with penicillin (100 U/mL), streptomycin (100 μg/mL), and 10% heat-inactivated FBS at 37° C. in a humidified incubator with 5% CO2.
(§2) Method: Cells were plated at 2000 to 5000 cells/well density in 96-wells plate and cultured overnight. Small molecules that were tested were added to the cells in the final concentration of 10 μM in the presence of 0.3% DMSO and 10% FBS, and incubated for 2-4 days at 37° C. in a humidified incubator with 5% CO2. For IC50 value determination, serial dilutions of compounds were added to cells under the same conditions.
(§3) Assay: At the end of the incubation period, cell viability was determined using the CellTiter 96® Aqueous One Solution Cell Proliferation Assay according to manufacturer specifications (Promega, Madison, WI). The percentage of small molecules inhibition of cellular proliferation was calculated from raw data.

[2] = tested on: BxPC3 (expressing wild type K-Ras); conditions: Homo sapiens, BXPC-3; BxPC3, pancreatic, KRas WT
Protocol: as §1, §2, §3

[3] = tested on: CF-PAC1 (expressing KRas G12V mutant); conditions: Homo sapiens, CFPAC-1, CF-PAC1, pancreatic
Protocol: as §1, §2, §3

[4] = tested on: HCC-1806 (expressing wild type KRas); conditions: Homo sapiens, HCC1806; HCC-1806, Breast (TNBC), KRas WT
Protocol: as §1, §2, §3

[5] = tested on: HPAF-II (expressing KRas G12D mutant); conditions: Homo sapiens, pancreatic
Protocol: as §1, §2, §3

[6] = tested on: HT29 (expressing wild type KRas); conditions: Homo sapiens, HT-29; HT29, colon, KRas WT
Protocol: as §1, §2, §3

[7] = tested on: LS123 (expressing KRas G12S mutant); conditions: Homo sapiens, LS-123, colon
Protocol: as §1, §2, §3

[8] = tested on: NCI-H1299 (expressing NRas Q61H mutant); conditions: Homo sapiens; NCI-H1299, NSCLC, Q61H (N-Ras)
Protocol: as §1, §2, §3

[9] = tested on: NCI-H1975 (expressing wild type KRas); conditions: Homo sapiens; NCI-H1975, NSCLC, KRas WT
Protocol: as §1, §2, §3

[10] = tested on: NCI-H441 (expressing KRas G12S mutant); conditions: Homo sapiens, NCI-H441, NSCLC
Protocol: as §1, §2, §3

[11] = tested on: SU86.86 (expressing KRas G12D mutant); conditions: Homo sapiens, SU.86.86, SU86.86, pancreatic
Protocol: as §1, §2, §3

[12] = tested on: A549 (expressing KRas G12S mutant); conditions: Homo sapiens, A549, NSCLC
Protocol: Cell lines: Human tumor-derived cell lines were purchased from American Type Culture Collection. Human tumor-derived pancreatic cancer cell line MiaPaca-2 (expressing KRAS G12C mutant) and Panc-1 (expressing KRas G12D mutant), and Human non-small cell lung cancer (NSCLC) cell line A549 (expressing KRas G12S mutant) were grown in complete DMEM-High Glucose medium. Human colon cancer cell line SW-620 (expressing KRas G12V mutant) was grown in RPMI 1640 medium. All cell lines were supplemented with penicillin (100 U/mL), streptomycin (100 μg/mL), and 10% heat-inactivated FBS at 37° C. in a humidified incubator with 5% CO2.
as §2, with “to be” for “that were”, “FBS” for “FBS,”
as §3, §1, §2

IC50 [1]: < 150 nM
IC50 [2]: < 150 nM
IC50 [4]: 510 to 1000 nM
IC50 [6]: < 150 nM
IC50 [8]: < 150 nM
IC50 [9]: 510 to 1000 nM
IC50 [10]: 510 to 1000 nM
IC50 [12]: 510 to 1000 nM
SMILES: COc1cc(Nc2nc(-c3nccn3C)nn3cc(-c4ccn(C(C)C)n4)c(C)c23)ncn1 [Compound 6, 6-(1-Isopropyl-1H-pyrazol-3-yl)-N-(6-methoxypyrimidin-4-yl)-5-methyl-2-(1-methyl-1H-imidazol-2-yl)pyrrolo[2,1-f][1,2,4]triazin-4-amine]
IC50 [3]: < 150 nM
IC50 [5]: < 150 nM
IC50 [7]: < 150 nM
IC50 [11]: 150 to 500 nM
